# Test results: patent US20210205264A1, “USE OF DELTA-TOCOTRIENOL FOR TREATING CANCER” (H. LEE MOFFITT CANCER CENTER & RESEARCH INSTITUTE INC., priority 2018, published 2021)
# Experiments:
# [1] = test system: ApcMin/+ mice; test: Adenoma (intestinal polyp) formation in ApcMin/+ mice; format: in vivo
# From the text: FIGS. 1A and 1B show the number of intestinal polyps (FIG. 1A) and H&E staining of polyps (FIG. 1B) in ApcMin/+ mice treated with vehicle (V), aspirin (Asp), d-T3, and combination of aspirin+d-T3. Black dots in FIG. 1B point out polyps in the intestine. Although substantial preclinical evidence exists regarding the preventive activity of d-T3 and g-T3 in various types of cancers, there is no report of d-T3 prevention of colon cancer despite evidence of activity in colon cell lines and xenograft models. […] Treatment with aspirin alone reduced adenoma formation by 38%, and treatment with d-T3 alone reduced adenoma formation by 44%, while treatment with the combination of aspirin and d-T3 reduced adenoma formation by 58%.
# [2] = test system: intestinal stem cells of ApcMin/+ mice; test: Caspase 3 staining of intestinal crypts in ApcMin/+ mice; format: in vivo; conditions: small intestinal crypts of ApcMin/+ mice
# From the text: Although substantial preclinical evidence exists regarding the preventive activity of d-T3 and g-T3 in various types of cancers, there is no report of d-T3 prevention of colon cancer despite evidence of activity in colon cell lines and xenograft models. […] Treatment with aspirin alone reduced adenoma formation by 38%, and treatment with d-T3 alone reduced adenoma formation by 44%, while treatment with the combination of aspirin and d-T3 reduced adenoma formation by 58%.
# [3] = test system: AOM induced rat colon cancer model; test: AOM induced rat colon cancer model; format: in vivo, Fisher 344 rat
# From the text: FIGS. 3A, 3B, 3C and 3D show the number of polyps (FIG. 3A) and cancer (FIG. 3C) with H&E stain of representative areas of polyp (FIG. 3B) and cancer (FIG. 3D) following no treatment (NT), treatment with vehicle (V), sulindac, and d-T3 in AOM-induced Fisher 344 rat model of colon carcinogenesis.
# To confirm the CRC prevention activity of d-T3, the activity of d-T3 was investigated and compared this with sulindac, another established NSAID with chemoprevention activity against CRC in the AOM induced rat colon cancer model.
# [4] = test system: colon cancer stem cells (CCSC); test: d-T3 IC50 in colon cancer stem cells; format: cell-based, human; conditions: 5 days treatment, daily fresh media change
# [5] = test system: β-catenin; test: β-catenin immunofluorescence and Western blot in CCSCs; format: cell-based, human
# From the text: FIGS. 9A, 9B, 9C, and 9D show quantification of β-catenin in the nucleus and cytoplasm of CCSCs with confocal microscopy (FIGS. 9A & 9B) after treatment with vehicle, aspirin, d-T3, and aspirin+d-T3.
# As noted above, stability of the β-catenin complex by inactivation of APC leads to stabilization and nuclear translocation of β-catenin and to transcriptional activation of β-catenin target genes such as c-Myc and cyclin D1. […] Furthermore, d-T3 inhibition of CCSCs is associated with the downregulation of β-catenin, c-Myc, cyclin D1, and survivin as measured by Western blot in CCSCs (FIG. 9D).
# [6] = test system: SW-620; test: Apoptosis induction in SW-620; format: cell-based, human
# [7] = test system: CCSCs; test: miRNA profiles in CCSCs; format: cell-based, human; conditions: 24-hour treatment; aspirin 5 mM, d-T3 10 μM
# From the text: Given the results, and without intending to be bound by any theory, it appears that the induction of apoptosis can be one mechanism by which d-T3 prevents CRC and augments CRC prevention activity. BID knockout can diminish this effect. The biorepository as well as materials generated from studies can be used to explore other mechanisms of d-T3 action such as anti-inflammatory, mediation of the immune system, anti-angiogenesis, and alterations in metabolism. To this end, miRNA profiles were conducted that are altered with d-T3, aspirin, and d-T3 with aspirin treatment in CCSCs. To discover early miRNAs that are likely to influence activity, these cells were deliberately treated with doses of these agents at a duration when there were no phenotypic changes of apoptosis.
# [8] = target: T1, hCAS (Homo sapiens, UniProt P55060); test: hCAS protein levels in MiaPaCa-2 cells; format: cell-based
# T1 construct: endogenous in cells; host or cells: MiaPaCa-2 human pancreatic cancer cells
# T1 sequence (P55060 1-971): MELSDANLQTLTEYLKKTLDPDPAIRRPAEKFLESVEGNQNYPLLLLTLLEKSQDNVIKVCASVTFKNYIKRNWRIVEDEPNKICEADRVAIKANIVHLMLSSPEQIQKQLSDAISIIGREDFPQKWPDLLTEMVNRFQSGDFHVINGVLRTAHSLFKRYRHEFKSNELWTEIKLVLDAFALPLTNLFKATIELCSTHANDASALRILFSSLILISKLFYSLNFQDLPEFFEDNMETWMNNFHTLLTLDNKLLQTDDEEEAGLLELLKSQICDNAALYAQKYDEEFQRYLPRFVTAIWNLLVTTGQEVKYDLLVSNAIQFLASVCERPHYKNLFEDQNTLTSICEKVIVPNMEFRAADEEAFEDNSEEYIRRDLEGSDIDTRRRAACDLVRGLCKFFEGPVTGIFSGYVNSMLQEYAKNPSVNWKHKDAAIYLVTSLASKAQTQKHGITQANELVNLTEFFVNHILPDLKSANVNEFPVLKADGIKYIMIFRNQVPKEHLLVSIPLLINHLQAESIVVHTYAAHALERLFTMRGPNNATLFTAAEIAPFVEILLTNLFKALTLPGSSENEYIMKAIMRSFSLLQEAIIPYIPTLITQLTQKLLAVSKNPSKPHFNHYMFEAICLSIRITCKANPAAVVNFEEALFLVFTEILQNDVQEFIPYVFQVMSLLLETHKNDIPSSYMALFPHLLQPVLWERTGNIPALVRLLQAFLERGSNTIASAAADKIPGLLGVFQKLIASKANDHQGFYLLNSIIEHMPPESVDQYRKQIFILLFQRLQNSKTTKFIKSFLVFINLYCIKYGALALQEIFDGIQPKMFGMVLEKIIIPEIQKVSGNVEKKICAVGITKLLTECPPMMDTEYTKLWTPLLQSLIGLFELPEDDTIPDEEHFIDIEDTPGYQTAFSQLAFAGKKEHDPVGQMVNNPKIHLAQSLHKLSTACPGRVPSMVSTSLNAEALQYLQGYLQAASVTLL
# [9] = test system: MiaPaCa-2 cell; test: MiaPaCa-2 cell viability at increasing concentrations; format: cell-based, human
smiles,measurement,setting,value
"CC(C)=CCC/C(C)=C/CC/C(C)=C/CC[C@]1(C)CCc2cc(O)cc(C)c2O1 [d-T3, δ-tocotrienol]",reduced adenoma formation,[1],44%
same,apoptosis detected by caspase 3 staining,[2],markedly induced apoptosis
same,cancer formation,[3],almost completely blocked
same,formation of intestinal polyps,[3],significantly inhibited
same,IC50,[4],5 µM
same,"β-catenin, c-Myc, cyclin D1, and survivin by Western blot",[5],downregulation
same,amount of β-catenin translocated to the nucleus,[5]; immunofluorescence staining,significantly decreased
same,apoptosis,[6],significantly induced apoptosis
same,down-regulation of miRNAs compared with vehicle (number),[7],9 miRNAs
same,up-regulation of miRNAs compared with vehicle (number),[7],7 miRNAs
same,time at which decrease of hCAS levels starts,[8],6 h
same,time of maximum effect on hCAS levels,[8],24 to 48 h
same,hCAS levels,[8]; d-T3 50 uM,decreases the hCAS levels
same,cell killing at 100 μM concentration,[9]; 100 μM,killing almost all cells
same,effect on cell viability,[9]; increasing concentrations,most potent
